Data taken from patent publication US7737136B2 (N.V. Organon, priority 2002, dated 2010).

Assays:
[1] = molecular target: T1, human progesterone receptor-B (Homo sapiens, UniProt P06401); assay: Progesterone receptor-B transactivation assay, antiprogestagenic activity (inhibition of luciferase transactivation induced by Org 2058); type: cell-based; conditions: in the presence of 1 nM (16α)-16-ethyl-21-hydroxy-19-norpregn-4-ene-3,20-dione (Org 2058); read-out: Anti-progestagenic activity EC50
T1 construct: expressed in transfected cells; host or cells: Chinese hamster ovary (CHO) cells, line CHO-PRB-pMMTV-LUC 1E2-A2
T1 sequence (P06401 1-933): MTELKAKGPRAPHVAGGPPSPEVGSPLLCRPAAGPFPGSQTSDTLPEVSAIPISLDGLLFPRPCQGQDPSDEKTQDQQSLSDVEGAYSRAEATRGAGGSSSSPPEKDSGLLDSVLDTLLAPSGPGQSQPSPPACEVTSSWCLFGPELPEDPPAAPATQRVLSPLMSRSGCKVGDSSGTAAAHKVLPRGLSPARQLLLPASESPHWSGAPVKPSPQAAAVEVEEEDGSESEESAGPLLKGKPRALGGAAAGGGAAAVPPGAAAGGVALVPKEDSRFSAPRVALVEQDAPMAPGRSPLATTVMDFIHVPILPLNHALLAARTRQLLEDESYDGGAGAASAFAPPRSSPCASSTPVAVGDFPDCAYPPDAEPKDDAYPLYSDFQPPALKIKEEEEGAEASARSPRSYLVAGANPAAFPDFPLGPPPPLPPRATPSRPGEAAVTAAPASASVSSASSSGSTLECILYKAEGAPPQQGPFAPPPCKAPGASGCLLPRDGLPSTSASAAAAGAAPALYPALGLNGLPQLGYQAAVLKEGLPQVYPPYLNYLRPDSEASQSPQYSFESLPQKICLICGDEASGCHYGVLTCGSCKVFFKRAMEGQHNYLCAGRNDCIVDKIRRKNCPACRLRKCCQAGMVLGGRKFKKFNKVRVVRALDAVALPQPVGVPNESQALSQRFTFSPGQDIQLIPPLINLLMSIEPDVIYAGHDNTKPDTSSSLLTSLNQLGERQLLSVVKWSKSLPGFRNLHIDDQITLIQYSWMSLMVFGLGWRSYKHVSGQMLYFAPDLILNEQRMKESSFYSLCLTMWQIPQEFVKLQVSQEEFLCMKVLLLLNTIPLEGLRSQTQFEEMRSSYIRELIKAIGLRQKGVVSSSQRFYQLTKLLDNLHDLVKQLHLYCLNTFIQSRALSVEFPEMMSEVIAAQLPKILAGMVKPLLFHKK
Protocol: (§1) The (anti-)progestagenic activity of a compound of the invention (EC 50 and intrinsic activity) was determined in an in vitro bioassay of Chinese hamster ovary (CHO) cells stably transfected with the human progesterone receptor-B expression plasmid and with a reporter plasmid in which the MMTV-promoter is linked to the luciferase reporter gene. […] The cells were cultured with charcoal-treated supplemented defined bovine calf serum from Hyclone (Utah, USA) in Dulbecco's Modified Eagles Medium/Nutrient Mixture F-12 (DMEM/HAM F12 in ratio 1:1) from Gibco (Paisley, UK).

[2] = molecular target: T1, human progesterone receptor-B; assay: Progesterone receptor-B transactivation assay, progestagenic (agonist) activity, CHO-PRB-pMMTV-LUC 1E2-A2 cells; type: cell-based; conditions: CHO cells stably transfected with human progesterone receptor-B and MMTV-luciferase reporter; read-out: Progestagenic activity EC50
Protocol: as §1

Row | EC50 [1] | EC50 [2] | Structure (SMILES)
1 | 100 to 10000 nM | 10 to 100 nM | CC(=S)N[C@H]1CCCN2c3cc(Cl)ccc3Oc3ccccc3[C@H]12 (relative stereo) [Example 21]
2 | 100 to 10000 nM | – | S=C(NC1CCCCC1)N[C@H]1CCCN2c3cc(Cl)ccc3Oc3ccccc3[C@H]12 (relative stereo) [Example 33]
3 | 10 to 100 nM | 100 to 10000 nM | CC(C)(C)OC(=O)CN[C@H]1CCCN2c3cc(Cl)ccc3Sc3ccccc3[C@H]12 (relative stereo) [Example 49, 1,1-Dimetylethyl trans-2-[(7-chloro-2,3,4,14b-tetrahydro-1H-dibenzo[b,f]pyrido[1,2-d][1,4]thiazepin-1-yl)amino]acetate]
4 | – | 10 to 100 nM | Cc1ccc2c(c1)Oc1ccc(Cl)cc1N1CCC[C@H](NC(=O)C(F)(F)F)[C@@H]21 (relative stereo) [Example 70, trans-N-(7-Chloro-2,3,4,14b-tetrahydro12-methyl-1H-dibenzo[b,f]pyrido[1,2-d][1,4]oxazepin-1-yl)-2,2,2-trifluoroacetamide]
5 | – | < 10 nM | O=C(N[C@H]1CCCN2c3c(ccc(Cl)c3Cl)Oc3cc(Br)ccc3[C@H]12)C(F)(F)F (relative stereo) [Example 71, trans-N-(12-Bromo-6,7-dichloro-2,3,4,14b-tetrahydro-1H-dibenzo[b,f]pyrido[1,2-d][1,4]oxazepin-1-yl)-2,2,2-trifluoroacetamide]
6 | – | 10 to 100 nM | O=C(N[C@H]1CCCN2c3cc(Cl)ccc3Oc3c(F)cccc3[C@H]12)C(F)(F)F (relative stereo) [Example 72, trans-N-(7-Chloro-11-fluoro-2,3,4,14b-tetrahydro-1H-dibenzo[b,f]pyrido[1,2-d][1,4]oxazepin-1-yl)-2,2,2-trifluoroacetamide]
7 | – | 10 to 100 nM | O=C(N[C@H]1CCCN2c3cc(Cl)ccc3Oc3cc(F)ccc3[C@H]12)C(F)(F)F (relative stereo) [Example 74, trans-N-(7-Chloro-12-fluoro-2,3,4,14b-tetrahydro-1H-dibenzo[b,f]pyrido[1,2-d][1,4]oxazepin-1-yl)-2,2,2-trifluoroacetamide]
8 | – | < 10 nM | O=C(N[C@H]1CCCN2c3cc(Cl)ccc3Oc3cc(F)c(F)cc3[C@H]12)C(F)(F)F (relative stereo) [Example 75, trans-N-(7-Chloro-12,13-difluoro-2,3,4,14b-tetrahydro-1H-dibenzo[b,f]pyrido[1,2-d][1,4]oxazepin-1-yl)-2,2,2-trifluoroacetamide]
9 | < 10 nM | < 10 nM | O=C(NC1CCCN2c3cc(Cl)ccc3Oc3ccccc3C12)C(F)F (stereo not drawn) [13 (1S14bR isomer)]
10 | – | 100 to 10000 nM | O=C(CCl)NC1CCCN2c3cc(Cl)ccc3Oc3ccccc3C12 (stereo not shown) [Example 14]
11 | – | < 10 nM | FC(F)(F)C(=S)NC1CCCN2c3cc(Cl)ccc3Cc3ccccc3C12 (stereo not shown) [Example 20]
12 | – | 10 to 100 nM | CN(C(=S)C(F)(F)F)C1CCCN2c3cc(Cl)ccc3Oc3ccccc3C12 (stereo not shown) [Example 24]

Continued, compound first:

Row | Structure (SMILES) | EC50 [1] | EC50 [2]
13 | O=C(N[C@H]1CCCN2c3cc(F)ccc3Oc3ccccc3[C@H]12)C(F)(F)F (relative stereo) [Example 5, trans-2,2,2-Trifluoro-N-(7-fluoro-2,3,4,14b-tetrahydro-1H-dibenzo[b,f]pyrido[1,2-d][1,4]oxazepin-1-yl)acetamide] | 100 to 10000 nM | 100 to 10000 nM
14 | O=C(N[C@H]1CCCN2c3cc(Cl)ccc3Cc3ccccc3[C@H]12)C(F)(F)F (relative stereo) [Example 8, trans-N-(7-Chloro-1,2,3,4,10,14b-hexahydrodibenzo[c,f]pyrido[1,2-a]azepin-1-yl)-2,2,2-trifluoroacetamide] | 10 to 100 nM | < 10 nM
15 | CC(=O)N[C@H]1CCCN2c3cc(Cl)ccc3Oc3ccccc3[C@H]12 (relative stereo) [Example 10, trans-N-(7-Chloro-2,3,4,14b-tetrahydro-1H-dibenzo[b,f]pyrido[1,2-d][1,4]oxazepin1-yl)acetamide] | 100 to 10000 nM | 100 to 10000 nM
16 | N=C(N[C@H]1CCCN2c3cc(Cl)ccc3Oc3ccccc3[C@H]12)C(F)(F)F (relative stereo) [Example 29, trans-N-(7-Chloro-2,3,4,14b-tetrahydro-1H-dibenzo[b,f]pyrido[1,2-d][1,4]oxazepin-1-yl)-2,2,2-trifluoroacetimidamide] | 10 to 100 nM | 10 to 100 nM
17 | CC(C)CNC(=S)N[C@H]1CCCN2c3cc(Cl)ccc3Oc3ccccc3[C@H]12 (relative stereo) [Example 32, trans-N-(7-Chloro-2,3,4,14b-tetrahydro-1H-dibenzo[b,f]pyrido[1,2-d][1,4]oxazepin-1-yl)-N′-(2-methylpropyl)thiourea] | 100 to 10000 nM | –
18 | O=C(N[C@H]1CCCN2c3cc(Cl)c(Cl)cc3Oc3ccccc3[C@H]12)C(F)(F)F (relative stereo) [Example 38A, trans-N-(7,8-Dichloro-2,3,4,14b-tetrahydro-1H-dibenzo[b,f]pyrido[1,2-d][1,4]oxazepin-1-yl)-2,2,2-trifluoroacetamide] | 100 to 10000 nM | 10 to 100 nM
19 | O=C(N[C@H]1CCCN2c3cc(Cl)c(Br)cc3Oc3ccccc3[C@H]12)C(F)(F)F (relative stereo) [Example 39, trans-N-(8-Bromo-7-chloro-2,3,4,14b-tetrahydro-1H-dibenzo[b,f]pyrido[1,2-d][1,4]oxazepin-1-yl)-2,2,2-trifluoroacetamide] | 100 to 10000 nM | 100 to 10000 nM
20 | COCCN[C@H]1CCCN2c3cc(Cl)ccc3Oc3ccccc3[C@H]12 (relative stereo) [Example 48, trans-7-Chloro-2,3,4,14b-tetrahydro-N-(2-methoxyethyl)-1H-dibenzo[b,f]pyrido[1,2-d][1,4]oxazepine-1-amine] | 10 to 100 nM | 100 to 10000 nM
21 | O=C(N[C@H]1CCCN2c3cc(Cl)ccc3Oc3cccc(F)c3[C@H]12)C(F)(F)F (relative stereo) [Example 73, trans-N-(7-Chloro-14-fluoro-2,3,4,14b-tetrahydro-1H-dibenzo[b,f]pyrido[1,2-d][1,4]oxazepin-1-yl)-2,2,2-trifluoroacetamide] | – | < 10 nM
22 | CN1c2ccccc2[C@@H]2[C@@H](NC(=O)C(F)(F)F)CCCN2c2cc(Cl)ccc21 (relative stereo) [Example 76, trans-N-(7-Chloro-1,2,3,4,10,14b-hexahydro-10-methyl-dibenzo[b,f]pyrido[1,2-d][1,4]diazepin-1-yl)-2,2,2-trifluoroacetamide] | – | < 10 nM
23 | O=C(N[C@H]1CCCN2c3cc(Cl)ccc3Nc3ccccc3[C@H]12)C(F)(F)F (relative stereo) [Example 78, trans-N-(7-chloro-1,2,3,4,10,14b-hexahydrodibenzo[b,f]pyrido[1,2-d][1,4]diazepin-1-yl)-2,2,2-trifluoroacetamide] | – | 10 to 100 nM
24 | FCC(=S)NC1CCCN2c3cc(Cl)ccc3Oc3ccccc3C12 [22 (1S,14bR isomer)] | 10 to 100 nM | –
25 | O=C(N[C@H]1CCCN2c3cc(Cl)ccc3Oc3ccccc3[C@H]12)C(F)F [Example 13] | – | 10 to 100 nM
26 | FCC(=S)N[C@H]1CCCN2c3cc(Cl)ccc3Oc3ccccc3[C@H]12 [Example 22] | – | < 10 nM
27 | CC(C)(C)NC(=S)NC1CCCN2c3cc(Cl)ccc3Oc3ccccc3C12 (stereo not shown) [Example 35] | 100 to 10000 nM | –
